Source: ChEMBL document CHEMBL1201862, “PubChem BioAssay data set” (2004)
Counter-ions that a name gives are not always drawn.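 Step 1: Grow cells in 96-well plates. Step 2: Expose to compound for 48 hours at 5 concentrations. Step 3: Interpolate endpoints linearly; if unreached, use highest concentration. At the GI50, growth is halved.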 Active and inactive are the calls of the source. Rule as the data show it: active = GI50 up to about 1.1 µM and inactive = higher.

What was measured:
Test in all cases: inhibition of tumour cell growth, NCI panel, 48 h
[1] = test system: A549
[2] = test system: BT-549
[3] = test system: CCRF-CEM
[4] = test system: HCC 2998
[5] = test system: IGROV-1
[6] = test system: MDA-MB-231
[7] = test system: NCI-H226
[8] = test system: NCI-H23
[9] = test system: NCI-H522
[10] = test system: OVCAR-8
[11] = test system: PC-3
[12] = test system: RPMI-8226
[13] = test system: SF-268
[14] = test system: SK-OV-3
[15] = test system: SR
[16] = test system: T47D
[17] = test system: NCI/ADR-RES
[18] = test system: OVCAR-4
[19] = test system: U-251

SMILES | GI50 [1] | GI50 [2] | GI50 [3] | GI50 [4] | GI50 [5] | GI50 [6] | GI50 [7] | GI50 [8] | GI50 [9] | GI50 [10] | GI50 [11] | GI50 [12] | GI50 [13] | GI50 [14] | GI50 [15] | GI50 [16] | GI50 [17] | GI50 [18] | GI50 [19]
CC1=NC(=Cc2ccc(O)cc2)C(=O)N1n1c(-c2ccccc2)nc2ccccc2c1=O | > 100 µM (inactive) | > 100 µM (inactive) | > 100 µM (inactive) | > 100 µM (inactive) | > 100 µM (inactive) | > 100 µM (inactive) | > 100 µM (inactive) | > 100 µM (inactive) | > 100 µM (inactive) | > 100 µM (inactive) | > 100 µM (inactive) | > 100 µM (inactive) | > 100 µM (inactive) | > 100 µM (inactive) | > 100 µM (inactive) | > 100 µM (inactive) | – | – | –
CC1(C)C(/C=N\O)=[N+]([O-])C(C)(C)N1O | > 100 µM (inactive) | – | 89.7 µM (inactive) | > 100 µM (inactive) | > 100 µM (inactive) | > 100 µM (inactive) | > 100 µM (inactive) | > 100 µM (inactive) | – | > 100 µM (inactive) | > 100 µM (inactive) | > 100 µM (inactive) | > 100 µM (inactive) | > 100 µM (inactive) | > 100 µM (inactive) | > 100 µM (inactive) | > 100 µM (inactive) | > 100 µM (inactive) | > 100 µM (inactive)
COC(=O)c1nc(C(=O)OC)c2c([nH]c3ccccc32)c1C(=O)OC | > 100 µM (inactive) | – | 71.1 µM (inactive) | > 100 µM (inactive) | > 100 µM (inactive) | – | 37.7 µM (inactive) | > 100 µM (inactive) | > 10 µM (inactive) | > 100 µM (inactive) | – | – | – | – | 70.3 µM (inactive) | – | – | > 10 µM (inactive) | 99.8 µM (inactive)
Cn1c2cc(O)cc(O)c2c(=O)c2c([N+](=O)[O-])cccc21 | > 100 µM (inactive) | – | > 100 µM (inactive) | > 100 µM (inactive) | > 100 µM (inactive) | – | > 100 µM (inactive) | > 100 µM (inactive) | > 100 µM (inactive) | > 100 µM (inactive) | – | > 100 µM (inactive) | > 100 µM (inactive) | > 100 µM (inactive) | > 100 µM (inactive) | – | – | > 100 µM (inactive) | > 100 µM (inactive)
Cc1ccc(C(=O)/C=C/N2CCN(c3cccc(C(F)(F)F)c3)CC2)cc1 | 22.9 µM (inactive) | – | – | 12.4 µM (inactive) | 16.3 µM (inactive) | 14.6 µM (inactive) | 16.9 µM (inactive) | 16.8 µM (inactive) | 17.5 µM (inactive) | 17.5 µM (inactive) | 25.1 µM (inactive) | 31.9 µM (inactive) | 17.3 µM (inactive) | 35.1 µM (inactive) | 19.8 µM (inactive) | 20.1 µM (inactive) | 17.9 µM (inactive) | 43.7 µM (inactive) | 16.8 µM (inactive)
N#Cc1c(N2CCC(O)C2)c2ccccc2n2c1nc1ccccc12 (centres undefined) | > 100 µM (inactive) | 46.9 µM (inactive) | > 100 µM (inactive) | > 100 µM (inactive) | 69.2 µM (inactive) | 19.4 µM (inactive) | – | 67.6 µM (inactive) | 47.5 µM (inactive) | 45.7 µM (inactive) | > 100 µM (inactive) | > 100 µM (inactive) | 43.7 µM (inactive) | – | – | 64.3 µM (inactive) | 65.3 µM (inactive) | 20.5 µM (inactive) | –
CCN(CC)CC(O)C1CCC(c2ccccc2)CC1 (centres undefined) | 32.6 µM (inactive) | – | 27.4 µM (inactive) | 0.627 µM (active) | 35.2 µM (inactive) | 17.1 µM (inactive) | 15.8 µM (inactive) | 30.4 µM (inactive) | 16.2 µM (inactive) | 16.3 µM (inactive) | 43.6 µM (inactive) | 13.5 µM (inactive) | 31.6 µM (inactive) | 16.1 µM (inactive) | – | 26.9 µM (inactive) | 43.2 µM (inactive) | – | 19.8 µM (inactive)
CC1(C)CC2=C(SC3C=CC=CC3N2)C(=O)C1C(=O)C(N)=O (centres undefined) | > 100 µM (inactive) | > 100 µM (inactive) | > 100 µM (inactive) | > 100 µM (inactive) | > 100 µM (inactive) | > 100 µM (inactive) | 91 µM (inactive) | > 100 µM (inactive) | 72.3 µM (inactive) | > 100 µM (inactive) | 65.9 µM (inactive) | – | > 100 µM (inactive) | > 100 µM (inactive) | – | – | > 100 µM (inactive) | > 100 µM (inactive) | > 100 µM (inactive)
NCCS [CYSTEAMINE HYDROCHLORIDE] | > 100 µM (inactive) | – | > 100 µM (inactive) | > 100 µM (inactive) | > 100 µM (inactive) | > 100 µM (inactive) | > 100 µM (inactive) | > 100 µM (inactive) | > 100 µM (inactive) | > 100 µM (inactive) | > 100 µM (inactive) | > 100 µM (inactive) | > 100 µM (inactive) | – | > 100 µM (inactive) | > 100 µM (inactive) | > 100 µM (inactive) | > 100 µM (inactive) | > 100 µM (inactive)
